The record followed here is US20150329825A1, “COMPOSITIONS AND METHODS EMPLOYING STEM CELL-DERIVED CARDIOMYOCYTES” (THE REGENTS OF THE UNIVERSITY OF MICHIGAN, priority 2014, published 2015).

What all share (format): cell-based, human
Test [1] concerns hiPSC-CM monolayers. Nature of the test: 96 well optical mapping of intracellular calcium flux in hiPSC-CM monolayers under IKr blockade. The conditions noted are these: 100 nmol L^-1 E4031. The protocol:
Briefly, monolayers were loaded with the intracellular Ca^2+ indicator, rhod-2AM (10 μmol L-1, Life Technologies). After a 30 minute incubation time, the cells were washed in Hanks balanced salt solution (HBSS, Life Technologies) for an additional 30 minutes before optical mapping recordings. […] Movies were filtered in both the time and space domain and conduction velocity (CV) was measured as described previously (Hou L, et al., Circulation Research. 2010;107:1503-1511, herein incorporated by reference in its entirety).
Small glass coverslips to fit into a 96 well format dish are not readily available so here plastic was used as the rigid comparator for PDMS.
(Calcium assays in cells follow changes in intracellular calcium, usually with a dye or a luminescent sensor.)

Another test concerns hiPSC-CMs (iCell). Nature of the test: Western blotting for mature myofilament proteins (cTnI, β-MyHC) in hiPSC-CMs cultured with FAK inhibitor. In general terms: A western blot detects proteins with antibodies after separation by electrophoresis.
In test [2] the test system is hiPSC-CM monolayers. Nature of the test: Hypertrophic growth and monolayer formation of hiPSC-CMs on glass or PDMS coverslips with FAK inhibitor. How it is done: In a second set of experiments hiPSC-CM monolayers were fixed for immunocytochemistry following optical mapping recordings of impulse propagation as recently described (Lee P, et al., Circulation Research. 2012;110:1556-1563, herein incorporated by reference in its entirety). Briefly, cell monolayers were washed with PBS and then fixed with 4% paraformaldehyde for 10 minutes and rinsed twice before blocking with 10% normal donkey serum in PBS plus 0.1% Triton X-100 (Sigma) for 1.5 hours at room temperature. Primary antibodies were used to detect α-actinin (1:500, Sigma) in the cardiac sarcomeres and Cx43 (1:100, Millipore) and N-cadherin (1:200, BD Bioscience) at the intercellular junctions. The primary antibodies were added to 5% donkey serum in PBS plus 0.1% Triton X-100 and incubated overnight at 4° C. Subsequently, cells were washed three times in PBS plus 0.1% TRITON X-100. […] Protein localization was examined by laser scanning confocal microscopy with sequential laser firing for multiple fluorophores (Nikon AIR, Melville, N.Y.). iPSC-CM cross sectional area was calculated in NIS Elements software using N-cadherin staining of the cell membranes.
Integrins are transmembrane heterodimeric receptors essential for providing cell-extracellular matrix adhesion, cellular structural organization and transduction of mechanical signals from the extracellular matrix into biochemical signals in cardiomyocytes (Ross R S, et al., Circulation Research. 2001;88:1112-1119; Israeli-Rosenberg S, et al., The FASEB Journal. 2015;29:374-384; Israeli-Rosenberg S, et al., Circulation Research. 2014;114:572-586). β1 integrins are abundant in the adult heart and participate in the hypertophic response in rodent ventricular myoyctes (Ross et al., Circulation Research. […] Finally, the role of FAK activation in the hypertrophic response of hiPSC-CMs to the soft cell culture environment on PDMS was determined (FIG. 8D and FIG. 14).

Where [3] appears, read: 10 μmol L^-1 FAK inhibitor-14, cultured on PDMS.

Each structure is given as a SMILES string.

As for `Cc1cccc(CCN2CCC(C(=O)c3ccc(NS(C)(=O)=O)cc3)CC2)n1` [E4031], the “CaTD80 post E4031” value in the test on hiPSC-CM monolayers [1] (PDMS bottom dishes, n=5, pre 579.8±13.9 ms) is 780.1 ± 74.1 ms; in the test with hiPSC-CM monolayers [1] (plastic bottom dishes, n=8, pre 605.9±24.3 ms), 1873.8 ± 278.9 ms. For the same molecule, the “effect on beat frequency and CaTD80 (in words)” value in the test with hiPSC-CM monolayers [1] (PDMS bottom well) was “more modest effect”. For the same molecule, the “reduction of spontaneous beating frequency” value in the test on hiPSC-CM monolayers [1] (monolayers on matrigel coated PDMS, n=5) is recorded as around 20%; in the test with hiPSC-CM monolayers [1] (monolayers on rigid plastic (matrigel coated), n=8), around 50%. Moreover, the “effect on spontaneous beating frequency and CaTD80 (in words)” value in the test on hiPSC-CM monolayers [1] (rigid plastic bottom dishes (matrigel coated)) is listed as “very significant impact”.
Turning to `Nc1cc(N)c(N)cc1N` [FAK inhibitor-14], in the test with hiPSC-CMs (iCell) (setting [3]), the cTnI expression entry is reported as “failed to express cTnI” and the β-MyHC expression result is “expressed less β-MyHC”. Moreover, the “expression of mature myofilament protein isoforms including cTnI and β-MyHC” value with hiPSC-CMs (iCell) (FIG. 8C legend) is recorded as “prevents expression”. Further, the “monolayer formation and hiPSC-CM expansion in culture” value in the test with hiPSC-CM monolayers [2] (100 μmol L^-1, both Glass and PDMS) was “prevented monolayer formation and hiPSC-CM expansion in culture”. For the same molecule, the “hypertrophic growth of hiPSC-CMs” value with hiPSC-CM monolayers [2] (PDMS coverslips) is “prevented hypertrophic growth”. For the same molecule, in the test on hiPSC-CM monolayers [2] (glass coverslips, effect only at 100 μmol L^-1), the “effect on hiPSC-CMs grown on glass coverslips” value is given as “only affected at very high dose”.
